In US10323032B2, “P2X7 Modulators” (Janssen Pharmaceutica NV, priority 2013, dated 2019):
Like-named read-outs stand apart in the source and are kept apart here.

Biological target: P2X7 receptor (Homo sapiens (Human), UniProt Q99572)
Assay: P2X7 antagonism in human PBMCs: IL-1β release (ELISA) after LPS + Bz-ATP
Type: cell-based
Details: LPS 30 ng/ml + 0.5 mM Bz-ATP; for remaining activity at 10 µM: read-out: PBMC 10 μM (% control)
Method: Human blood was collected using a blood donor program. […] Cells were incubated for an additional 1.5 hours. […] Data are analyzed and graphed on Graphpad Prism 5. […] The IC50 for each compound is then uploaded into 3DX.

[1] = P2X7, Table 3 (additional runs), 10 μM compound

P2X7 receptor, sequence (Q99572 whole entry): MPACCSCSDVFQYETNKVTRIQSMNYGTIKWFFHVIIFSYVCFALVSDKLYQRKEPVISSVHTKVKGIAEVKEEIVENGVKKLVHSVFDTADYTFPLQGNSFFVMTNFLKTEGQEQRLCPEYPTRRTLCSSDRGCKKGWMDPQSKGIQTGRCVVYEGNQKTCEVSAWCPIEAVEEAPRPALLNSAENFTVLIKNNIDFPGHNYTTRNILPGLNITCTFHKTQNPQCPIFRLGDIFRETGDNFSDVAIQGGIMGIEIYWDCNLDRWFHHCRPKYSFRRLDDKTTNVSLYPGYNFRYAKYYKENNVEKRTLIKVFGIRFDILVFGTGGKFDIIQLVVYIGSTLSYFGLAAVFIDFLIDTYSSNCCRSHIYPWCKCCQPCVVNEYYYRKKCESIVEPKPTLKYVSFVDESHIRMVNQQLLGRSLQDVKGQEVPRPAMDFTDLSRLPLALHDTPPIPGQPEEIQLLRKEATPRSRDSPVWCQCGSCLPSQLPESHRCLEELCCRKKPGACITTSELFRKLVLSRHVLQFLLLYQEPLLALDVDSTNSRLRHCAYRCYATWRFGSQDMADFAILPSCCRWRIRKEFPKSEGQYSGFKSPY

remaining activity at 10 µM [1] | SMILES | also measured
 | Cc1nc2c(c(-c3ccn[nH]3)n1)C[C@H](C)N(C(=O)c1ccc(Cl)cc1F)C2 (single isomer, unassigned) [Example 89, (S*)-(4-chloro-2-fluorophenyl)(2,6-dimethyl-4-(1H-pyrazol-5-yl)-5,6-dihydropyrido[3,4-d]pyrimidin-7(8H)-yl)methanone] | remaining activity at 10 µM (P2X7, Table 2, 10 μM compound): -16.4%
-0.6% | Cc1nc2c(c(-c3ccn[nH]3)n1)C[C@@H](C)N(C(=O)c1cccc(OC(F)(F)F)c1)C2 (single isomer, unassigned) [Example 141, (R*)-(2,6-dimethyl-4-(1H-pyrazol-5-yl)-5,6-dihydropyrido[3,4-d]pyrimidin-7(8H)-yl)(3-(trifluoromethoxy)phenyl)methanone] | 
-18.9% | Cc1nc2c(c(-c3ccn[nH]3)n1)C[C@@H](C)N(C(=O)c1cccc(F)c1Cl)C2 (single isomer, unassigned) [Example 144, (R*)-(2-chloro-3-fluorophenyl)(2,6-dimethyl-4-(1H-pyrazol-5-yl)-5,6-dihydropyrido[3,4-d]pyrimidin-7(8H)-yl)methanone] | 
 | Cc1nc2c(c(-c3ccn[nH]3)n1)CC(C)N(C(=O)c1cccc(OC(F)(F)F)c1)C2 (stereo not shown) [Example 140, (2,6-dimethyl-4-(1H-pyrazol-5-yl)-5,6-dihydropyrido[3,4-d]pyrimidin-7(8H)-yl)(3-(trifluoromethoxy)phenyl)methanone] | PBMC 10 μM (% control) (Table 3 (additional runs), 10 μM compound): 52.5 % control
